Data set [1] has as its system LN-18. Briefly: Antitumor activity against human LN-18 cells assessed as inhibition of cell viability incubated for 72 hrs by SRB assay. The class given is functional, cell-based. The following applies: LN-18, 72 h. In general terms: The SRB assay estimates cell density from bound dye.
Data set [2] can be described thus: Antitumor activity against […] Hepa1-6 cells assessed as inhibition of cell viability incubated for 72 hrs by SRB assay. It is filed as functional, cell-based. The following applies: Mus musculus, Hepa1-6, 72 h.
Data set [3] deals with CT26. Description: Antitumor activity against mouse CT26 cells assessed as inhibition of cell viability incubated for 72 hrs by SRB assay. The class given is functional, cell-based. The conditions noted are these: CT26, 72 h.
Data set [4] relates to B16. Briefly: Antitumor activity against mouse B16 cells assessed as inhibition of cell viability incubated for 72 hrs by SRB assay. The conditions noted are these: B16, 72 h. It is filed as functional, cell-based.
Data set [5] deals with CT26. Description: Induction of DNA damage in mouse CT26 cells assessed as increase in gammaH2AX level at 0.1 to 50 uM incubated for 6 hrs by immunoblot analysis. The class given is functional, cell-based. The conditions noted are these: dose 0.1-50 µM.
For data set [6], the system named is CT26. Description: Antitumor activity against mouse CT26 cells assessed as decrease in intracellular NAD level upto 10 uM measured for 6 hrs by absorbance based assay. It is filed as functional, cell-based.
The target in data set [7] is Nicotinamide phosphoribosyltransferase (Homo sapiens, UniProt P43490). Description: Inhibition of recombinant human NAMPT preincubated for 5 mins followed by NAM addition measured for 15 mins by fluorescence based assay.
For data set [8], the target named is Nicotinamide phosphoribosyltransferase (Mus musculus) (UniProt Q99KQ4). Briefly: Binding affinity to NAMPT in mouse B16 cells assessed as increase in thermal stabilization incubated for 3 hrs followed by heating at 46 to 71 degreeC for 3 mins by CETSA assay. The conditions noted are these: time 183.0 min. The class given is cell-based.
The subject of a further data set is NCI-H1299. Description: Antitumor activity against human NCI-H1299 cells assessed as inhibition of cell viability at 20 to 80 uM incubated for 48 hrs by CCK8 assay. The class given is functional, cell-based. The following applies: dose 20-80 µM. (Tetrazolium assays rely on reduction of a dye to a coloured formazan, in cell work by metabolically active cells.)

Data set [9] concerns B16. Briefly: Induction of DNA damage in mouse B16 cells assessed as increase in gammaH2AX level at 20 nM incubated for 24 hrs in presence of olaparib by immunofluorescence staining based analysis. The class given is functional, cell-based.
In a further data set the test system is PANC-1. Briefly: Antitumor activity against human PANC-1 cells assessed as inhibition of cell viability at 20 to 80 uM incubated for 48 hrs by CCK8 assay. It is filed as functional, cell-based. The conditions noted are these: dose 20-80 µM.
The subject of data set [10] is HepG2. Briefly: Antitumor activity against human HepG2 cells assessed as inhibition of cell viability at 20 to 80 uM incubated for 48 hrs by CCK8 assay. It is filed as functional, cell-based. The following applies: dose 20-80 µM.
Data set [11] concerns B16. Description: Induction of DNA damage in mouse B16 cells assessed as increase in gammaH2AX level at 100 nM incubated for 24 hrs by immunofluorescence staining based analysis. It is filed as functional, cell-based.
The next data set deals with HCT-116. Description: Antitumor activity against human HCT-116 cells assessed as inhibition of cell viability at 20 to 80 uM incubated for 48 hrs by CCK8 assay. The conditions noted are these: dose 20-80 µM. It is filed as functional, cell-based.
The subject of data set [12] is HepG2. Description: Antitumor activity against human HepG2 cells assessed as decrease in intracellular NAD level measured for 24 hrs by absorbance based assay. The conditions noted are these: dose 0.032-100 µM. It is filed as functional, cell-based.
Data set [13] relates to B16. Description: Antitumor activity against mouse B16 cells assessed as decrease in intracellular NAD level at 20 nM measured after 12 to 24 hrs in presence of olaparib by absorbance based assay. The class given is functional, cell-based. The following applies: time 12-24 hrs.
Data set [14] relates to LN-18. Briefly: Antitumor activity against human LN-18 cells assessed as inhibition of cell viability at 6 nM incubated for 72 hrs in presence of NNMT inhibitor by crystal violet staining based analysis. It is filed as functional.
Data set [15] can be described thus: Stability in mouse microsomes assessed as half life. It is filed as ADME, Microsome.
A short description of data set [16]: Toxicity in Balb/c mouse model allografted with mouse CT26 cells assessed as body weight loss at 2 mg/kg/day, ip for approximately 10 days. The class given is organism-based. The following applies: in vivo, 240 h, time 10 day.
Another data set deals with A549. Description: Antitumor activity against human A549 cells assessed as inhibition of cell viability at 20 to 80 uM incubated for 48 hrs by CCK8 assay. The class given is functional, cell-based. The conditions noted are these: dose 20-80 µM.
Data set [17] concerns B16. Briefly: Induction of DNA damage in mouse B16 cells assessed as increase in gammaH2AX level upto 100 nM incubated for 24 hrs in presence of NMN by immunofluorescence staining based analysis. The class given is functional, cell-based.
Data set [18] has as its system B16. Description: Induction of DNA damage in mouse B16 cells assessed as increase in gammaH2AX level at 1 uM incubated for 24 hrs by immunoblot analysis. The class given is functional, cell-based.
Data set [19] deals with B16. Briefly: Antitumor activity against mouse B16 cells assessed as decrease in intracellular NAD level at 20 to 100 nM measured after 12 to 24 hrs by absorbance based assay. The class given is functional, cell-based. The conditions noted are these: dose 20-100 nM, time 12-24 hrs.
Data set [20] in a line: Toxicity in C57BL/6 mouse model allografted with mouse B16 cells assessed as body weight loss at 2 mg/kg/day, ip for approximately 10 days. It is filed as organism-based. The conditions noted are these: in vivo, 240 h, time 10 day.
In data set [21] the test system is CT26. Briefly: Induction of apoptosis in mouse CT26 cells incubated for 48 hrs by Annexin V-FITC/PI staining based flow cytometry. It is filed as functional, cell-based. The following applies: dose 10-40 nM. On the technique in general: A flow cytometer gives signals particle by particle.
Another data set has as its system MDA-MB-231. Description: Antitumor activity against human MDA-MB-231 cells assessed as inhibition of cell viability at 20 to 80 uM incubated for 48 hrs by CCK8 assay. It is filed as functional, cell-based. The conditions noted are these: dose 20-80 µM.
The subject of data set [22] is CT26. Briefly: Antitumor activity against mouse CT26 cells allografted in Balb/c mouse model at 2 mg/kg/day, ip for approximately 10 days. The class given is functional, organism-based. The conditions noted are these: time 10.0 day.
In data set [23] the test system is B16. Briefly: Induction of DNA damage in mouse B16 cells assessed as increase in gammaH2AX level at 100 nM by immunofluorescence staining based analysis. The following applies: time 2-24 hrs. It is filed as functional, cell-based.
For data set [24], the system named is B16. Briefly: Induction of DNA damage in mouse B16 cells assessed as increase in gammaH2AX level at 0.1 uM incubated for 24 hrs by immunofluorescence staining based analysis. It is filed as functional, cell-based.
Data set [25] has as its system CT26. Briefly: Induction of DNA damage in mouse CT26 cells assessed as increase in gammaH2AX level at 0.1 to 10 uM measured after 12 hrs by immunoblot analysis. The class given is functional, cell-based. The following applies: dose 0.1-10 µM.
Data set [26] concerns B16. Briefly: Induction of DNA damage in mouse B16 cells assessed as increase in gammaH2AX level at 0.1 uM incubated for 24 hrs by immunoblot analysis. It is filed as functional, cell-based.
Data set [27] concerns LN-18. Briefly: Antitumor activity against human LN-18 cells assessed as inhibition of cell viability at 6 nM incubated for 72 hrs in presence of sirtuins inhibitor by crystal violet staining based analysis. The class given is functional.
A further data set deals with Calf thymus DNA. Description: Binding affinity to calf thymus DNA assessed as decrease in fluorescence intensity at 100 to 200 uM by […] displacement assay. The class given is nucleic-acid assay. The conditions noted are these: Bos taurus; dose 100-200 µM.

Structures are written as SMILES. Active and inactive are the calls of the source. The rule behind the calls is not given here.

The term IC50 denotes the concentration at which inhibition is half-maximal. For orientation: half-life means how long it takes for the measured level to halve.

Nicotinamide phosphoribosyltransferase, sequence (P43490 whole entry): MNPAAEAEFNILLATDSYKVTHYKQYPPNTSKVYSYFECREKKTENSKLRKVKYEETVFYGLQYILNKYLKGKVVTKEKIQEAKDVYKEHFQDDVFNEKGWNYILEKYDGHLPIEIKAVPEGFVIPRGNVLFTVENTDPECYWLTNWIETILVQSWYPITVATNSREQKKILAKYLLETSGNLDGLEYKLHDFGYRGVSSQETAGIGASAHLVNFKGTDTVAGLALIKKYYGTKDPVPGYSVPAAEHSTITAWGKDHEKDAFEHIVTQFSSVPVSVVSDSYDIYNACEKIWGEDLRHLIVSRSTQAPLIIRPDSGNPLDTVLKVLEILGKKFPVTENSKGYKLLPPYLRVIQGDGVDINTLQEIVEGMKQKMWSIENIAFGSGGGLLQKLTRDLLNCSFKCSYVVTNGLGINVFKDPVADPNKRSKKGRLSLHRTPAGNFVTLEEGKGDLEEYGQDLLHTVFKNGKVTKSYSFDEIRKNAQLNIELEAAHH
Nicotinamide phosphoribosyltransferase (Mus musculus), sequence (Q99KQ4 whole entry, looked up): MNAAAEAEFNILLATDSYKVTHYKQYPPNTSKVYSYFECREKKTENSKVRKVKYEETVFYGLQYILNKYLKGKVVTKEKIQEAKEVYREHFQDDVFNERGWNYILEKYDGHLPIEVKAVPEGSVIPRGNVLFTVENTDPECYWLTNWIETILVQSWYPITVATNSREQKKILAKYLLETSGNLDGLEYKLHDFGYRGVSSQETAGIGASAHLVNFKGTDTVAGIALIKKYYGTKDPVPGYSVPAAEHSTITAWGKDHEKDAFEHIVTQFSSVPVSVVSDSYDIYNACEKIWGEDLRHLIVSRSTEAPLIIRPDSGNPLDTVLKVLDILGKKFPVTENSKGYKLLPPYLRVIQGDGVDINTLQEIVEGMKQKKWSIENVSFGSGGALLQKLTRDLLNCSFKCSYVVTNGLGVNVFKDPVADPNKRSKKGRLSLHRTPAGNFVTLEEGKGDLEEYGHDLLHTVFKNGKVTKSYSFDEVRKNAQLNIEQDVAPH

For `O=C(O)CCCc1ccc(N(CCCl)CCCl)cc1` [CHLORAMBUCIL], the IC50 (in the data set on LN-18 [1]; in [2]; in the data set on CT26 [3]; in the data set on B16 [4]) was over 1000 nM in each case.
Consider `O=C(/C=C/c1cccnc1)NCCCCC1CCN(C(=O)c2ccccc2)CC1` [DAPORINAD], for which the outcome with CT26 [5] and in the data set with CT26 [6] was Active. In addition, the IC50 in the data set with LN-18 [1] turned out to be 33.6 nM; in data set [2], 33.6 nM; with CT26 [3], 34.9 nM; in the data set on B16 [4], 219 nM.
As to `O=C(/C=C/c1cccnc1)OCCCCC1CCN(C(=O)c2ccccc2N(CCCl)CCCl)CC1`, the IC50 in [7] turned out to be 1.3 nM.
On the same count and under the same terms, to `O=C(/C=C/c1cccnc1)NCCCCC1CCN(C(=O)c2ccc(N(CCCl)CCCl)cc2)CC1` belongs 1.1 nM.
Turning to `O=C(/C=C/c1cccnc1)NCCCCC1CCN(C(=O)c2cccc(N(CCCl)CCCl)c2)CC1`, the outcome (in [8]; with B16 [9]; with CT26 [5]; with B16 [11]; in the data set on LN-18 [14]; in the data set on B16 [18]) was Active. In addition, the outcome in the data set with B16 [19], in the data set with CT26 [22], in the data set with B16 [24], in the data set with CT26 [6], in the data set with CT26 [25] and with B16 [26] was Active. Besides, the result in the data set with LN-18 [27] and with Calf thymus DNA was Active. Moreover, the inhibition entry with NCI-H1299, in the data set with PANC-1, with HepG2 [10], with HCT-116, in the data set with A549 and in the data set on MDA-MB-231 was “Active” in each case. Further, the Activity entry with HepG2 [12] is “Dose-Dependent Effect”; in [16], “Non-Toxic”; in data set [20], “Non-Toxic”; in the data set with CT26 [21], “Dose-Dependent Effect”; in the data set on B16 [23], “Dose-Dependent Effect”. In addition, the result in the data set on B16 [13] and with B16 [17] was inactive. In addition, the IC50 with LN-18 [1] amounted to 0.7 nM; in [2] it was 5.1 nM; in the data set with CT26 [3], 21.8 nM; in data set [7] it was 0.15 nM; in the data set with B16 [4], 52.4 nM. Besides, the half-life in data set [15] is 56.1 s.
For `O=C(/C=C/c1cccnc1)NCCCCC1CCN(C(=O)c2ccccc2N(CCCl)CCCl)CC1`, the concentration for half-maximal inhibition (IC50) is 31.3 nM in the data set on LN-18 [1]; 51.6 nM in data set [2]; 53.8 nM with CT26 [3]; 0.16 nM in [7]; 72.5 nM in the data set on B16 [4]. In addition, the outcome in the data set on CT26 [25] was Active.
For `O=C(/C=C/c1cccnc1)OCCCCC1CCN(C(=O)c2ccc(N(CCCl)CCCl)cc2)CC1`, in data set [7], the IC50 was determined as 37.5 nM.
Regarding `O=C(/C=C/c1cccnc1)OCCCCC1CCN(C(=O)c2cccc(N(CCCl)CCCl)c2)CC1`, the IC50 in data set [7] was found to be 3.9 nM.
